These results are taken from patent US6716873B1, “Tocopherol ester compounds” (Yasoo Health Inc., priority 2003, dated 2004).

Data set [1] has as its system MCF-7 cells. Put plainly: Cell viability assay, crystal violet staining (OD620 of cell lysates). The conditions noted are these: for OD620 of the cell lysates (crystal violet) / statistical significance of decrease in cell growth / effect on cell growth compared to control (FIG. 1): MCF-7; for OD620 of the cell lysates (crystal violet): equimolar concentrations corresponding to 10 μg/mL of VES; for statistical significance of decrease in cell growth: Day 7, day of maximal proliferation rate; for effect on cell growth compared to control (FIG. 1): equimolar concentrations. The procedure:
(§1) Experimental media. […] Stock solutions were maintained at 4° C.
Cells were plated in triplicate in 96-well plates and allowed to attaach and reach confluence for 48 hours. On Day 2 test compounds were added at equimolar concentrations corresponding to 10 μg/mL of VES. Cell viability was determined at the specified times by staining with crystal violet and measuring the OD620 of the cell lysates.

Data set [2] deals with MCF-7 cells. Put plainly: Cell growth/viability assay with tetrazolium salt WST-8 (OD 450 nm). The note with it: for inhibitory effect on cell viability (FIG. 2), in words: equimolar concentrations, incubation up to 10 days. On the procedure:
as §1
Equimolar concentrations of the different compounds were added on day 2 and allowed for incubation for the indicated time period.
(In general: Tetrazolium dyes change colour on reduction, which living cells bring about.)

Data set [3] can be described thus: Stability in the culture media by TLC.
A further data set has as its system MDA-MB-231 cells. As to the kind of experiment: Cell growth/viability assay with tetrazolium salt WST-8 (OD 450 nm). The note with it: MDA-MB-231 (ER-negative); after 6 days of incubation.
The nature of data set [4]: Chemical stability (solid state, organic solvent, aqueous base by 1H NMR). The format is physicochemical. The note with it: pH=9, room temperature, one day.
The mark [5] stands for this setting: Day 0, equimolar concentrations, added on day 2.
Setting [6] is: Day 2, equimolar concentrations.
[7] abbreviates: Day 4, equimolar concentrations.
Where [8] appears, read: Day 7, equimolar concentrations.
Where [9] appears, read: Day 9, equimolar concentrations.
Where [10] appears, read: Day 11, equimolar concentrations.

Procedure for MDA-MB-231 cells: Cultures of MDA-MB-231 cells were maintained at 37° C. in minimum essential medium containing 3.7 g of NaHCO3 per liter of water, supplemented with 10% (v/v) Fetal Bovine Serum and 1% Penicillin/Streptomycin (broad spectrum antibiotics). […] The media were equilibrated with a humidified atmosphere of 5% CO2. Stock cultures were seeded at a density of 200×10^3 cells/mL and allowed to multiply to confluence. The cells were grown at 37° C. in a humidified atmosphere containing 5% CO2 and passaged when confluent using 0.25% trypsin.
The same amount of ethanol was added to the control samples. Stock solutions were maintained at 4° C.
Cell viability assays. The first method employs a novel tetrazolium salt, WST-8 [2-methoxy-4-nitrophenyl)-3(4-nitrophenyl)-5-(2,4-disulphophenyl)-2-H-tetrazolium, monosodium salt] which produces a highly water-soluble formazan dye generated by dehydrogenases which are active in living cells in a culture medium. For initial growth assays, cell suspensions (5000 cells/100 μL/well) were dispensed onto 96-well microtiter plates and incubated at 37° C., 5% CO2 for 1-12 days. At distinct time intervals 10 μL of the WST-8 solution was added to each well and allowed to incubate for 2-4 hrs. A yellow formazan dye is developed only in living cells. […] The absorbance at 450 nm was measured using a microplate reader (EMS Reader with dispenser, Genesys Software) with a reference wavelength at 600 nm. […] For both methods, cell suspensions (5000 cells/100 μ□L culture media) were initially inoculated on a 96-well microplate and preincubated in an incubator for 48 hrs to allow attachment 10 μL of the stock solution of each compound was added so that the final concentration was equimolar for each compound corresponding to 10 µg/mL of VES.
Comparison of the effect of the different compounds on absorbance at the appropriate wavelength was made by analysis of variance (ANOVA).
Cells were seeded in triplicate in 96-well plates and incubated for 48 hrs to allow attachment. The different compounds were added at the indicated concentrations and allowed to incubate for an additional 4 days. The indicated incubation time previously was determined in a growth assay ats the time of maximal proliferation rate. Tetrazolium salt WST-8 (10 μL) was added to each well, the cells were allowed to incubate for 2 hours and optical density (OD) measurements of the yellow formazan dye were made at 450 nm.

Take `O=[Se](=O)([O-])[O-].[Na+].[Na+]` [Na Selenate, sodium selenate, reference compound]: in the data set with MCF-7 cells [1] (3.26 μg/mL (equimolar to 10 μg/mL of VES)), the “cytotoxic effect on MCF-7 cells” value was 100%. In addition, the “OD620 of the cell lysates (crystal violet)” value (from here on “OD620 of the cell lysates”) in the data set with MCF-7 cells [1] (Day 0, added on Day 2) was 0; in the data set on MCF-7 cells [1] (Day 2), 0.07344; in the data set on MCF-7 cells [1] (Day 5), 0.06117; in the data set on MCF-7 cells [1] (Day 7) it was 0.082; in the data set with MCF-7 cells [1] (Day 9), 0.05411. Further, the “statistical significance of decrease in cell growth” value with MCF-7 cells [1] was “statistically significant decrease in cell growth”.

Turning to `Cc1c(C)c2c(c(C)c1OC(=O)C(CC(=O)O)[Se]c1ccccc1)CC[C@@](C)(CCC[C@H](C)CCC[C@H](C)CCCC(C)C)O2` (stereo partly drawn) [PSSA-α-Toc, 2-phenylselanyl-succinic acid RRR-α-tocopherol ester], the “OD620 of the cell lysates” value with MCF-7 cells [1] (Day 0, added on Day 2) was 0; in the data set with MCF-7 cells [1] (Day 2), 0.325; in the data set on MCF-7 cells [1] (Day 5), 0.9504; in the data set with MCF-7 cells [1] (Day 7), 1.227; in the data set on MCF-7 cells [1] (Day 9), 1.162. The “statistical significance of decrease in cell growth” value in the data set with MCF-7 cells [1] was “statistically significant decrease in cell growth”. Moreover, the “effect on cell growth compared to control (FIG. 1)” value in the data set on MCF-7 cells [1] was “inhibited cell growth much more effectively”. For the same compound, the “optical density (OD) of formazan dye at 450 nm (WST-8)” value (“optical density (OD) of formazan dye” below) in the data set with MCF-7 cells [2] (setting [5]) is 0; in the data set on MCF-7 cells [2] (setting [6]), 0.7806; in the data set on MCF-7 cells [2] (setting [7]), 1.4215; in the data set with MCF-7 cells [2] (setting [8]) it was 2.998; in the data set on MCF-7 cells [2] (setting [9]) it was 2.812; in the data set on MCF-7 cells [2] (setting [10]), 2.105. For the same compound, the “cytotoxicity, in words” value in the data set on MCF-7 cells [2] (concentration equivalent to IC50) is reported as “not cytotoxic”. The “inhibitory effect on cell viability (FIG. 2), in words” value (“inhibitory effect on cell viability” below) in the data set with MCF-7 cells [2] is given as “most potent inhibitory effect throughout the culture period”. Besides, the “stability in the culture media (TLC)” value in data set [3] is on record as “stable for more than one weak”. Also, the “inhibition of cell growth” value in the data set on MDA-MB-231 cells amounted to 65%.

As for `Cc1c(C)c2c(c(C)c1OC(=O)CCC(=O)O)CC[C@@](C)(CCC[C@H](C)CCC[C@H](C)CCCC(C)C)O2` [VES, RRR-α-tocopheryl succinate, reference compound], the “optical density (OD) of formazan dye” value in the data set on MCF-7 cells [2] (setting [5]) was 0; in the data set with MCF-7 cells [2] (setting [6]) it was 0.8005; with MCF-7 cells [2] (setting [7]) it was 1.439; in the data set with MCF-7 cells [2] (setting [8]), 3.311; with MCF-7 cells [2] (setting [9]), 3.427; with MCF-7 cells [2] (setting [10]), 2.99. In addition, the “inhibitory effect on cell viability” value with MCF-7 cells [2] is “inhibited cell growth more effectively during the first 7 days of incubation”. Moreover, the “inhibition of cell growth” value in the data set with MDA-MB-231 cells stood at 44%.

As to `O=C(O)CC([Se]c1ccccc1)C(=O)O` (stereo not shown) [PSSA, phenylselanyl-succinic acid], the “OD620 of the cell lysates” value is 0 with MCF-7 cells [1] (Day 0, added on Day 2); 0.3842 in the data set with MCF-7 cells [1] (Day 2); 1.218 with MCF-7 cells [1] (Day 5); 1.693 with MCF-7 cells [1] (Day 7); 1.495 with MCF-7 cells [1] (Day 9). Further, the “effect on cell growth compared to control (FIG. 1)” value in the data set with MCF-7 cells [1] was “no measurable effect compared to control”. The “optical density (OD) of formazan dye” value was 0 with MCF-7 cells [2] (setting [5]); 0.9149 with MCF-7 cells [2] (setting [6]); 2.019 with MCF-7 cells [2] (setting [7]); 3.618 with MCF-7 cells [2] (setting [8]); 3.541 in the data set on MCF-7 cells [2] (setting [9]); 3.451 in the data set on MCF-7 cells [2] (setting [10]). Further, the “inhibitory effect on cell viability” value in the data set on MCF-7 cells [2] is given as “no inhibitory effect over the first 7 days of incubation”. Also, the “decomposition of aqueous solution (1H NMR)” value in data set [4] was “less than 5%”. In addition, the “stability in the culture media (TLC)” value in data set [3] was “stable for more than one weak”. Further, the “inhibition of cell growth” value in the data set on MDA-MB-231 cells worked out at 31%.

In the case of `O=c1[nH]cc(F)c(=O)[nH]1` [5-FU, 5-fluorouracil, reference compound], the “inhibition of cell growth” value with MDA-MB-231 cells came out at 31%.
